For data set [1] the following is noted: mouse, in vivo, 5 min; cited from earlier work.
For data set [2] the following is noted: rat, in vivo, iv, 1.5 h; cited from earlier work.
Data set [3] has as its system renal tubular transport. As to conditions: mouse, in vivo.
Protocol: (§1) A dose of 50 mg/kg of probenicid was given 10 minutes prior to injection of radiochemicals. OIH was injected simultaneously.
(§2) *Values are mean and S.E.M. percent injected dose at 10 min. post
The next data set has as its system plasma proteins. As to conditions: cited from earlier work.
The conditions of data set [4]: rat, in vivo; cited from earlier work.
For data set [5] the following is noted: cited from earlier work.
The conditions of data set [6]: human, in vivo; cited from earlier work.
Data set [7] in a line: Organ biodistribution time course of Tc-CO2-DADS components in mice (Table 1). Format: in vivo, Hal Cr female albino mice. As to conditions: mouse, in vivo.
Protocol: Organ biodistribution and acute toxicity studies were carried out in mice, blood disappearance and bile appearance rates were determined by sampling of bood or bile in rats, and renal excretion rates of the two Tc-2,3-bis(mercaptoacetamido)propanoic acid components, Tc-DTPA, and OIH were determined in rabbits because of greater ease of urine sampling. The HPLC-purified Tc-2,3-bis(mercaptoacetamido)propanoate components were used directly except for dilution as necessary. In general HPLC collected volumes were 1 to 1.5 ml and were not diluted for rabbit studies, were diluted 2- to 10-fold for rat studies and were diluted about 20-fold for mouse studies. In most cases determinations were made with simultaneous administration of OIH.
The time course of organ distribution was determined in groups of six Hal Cr female albino mice. They were injected with 0.10 ml (0.5 uCi) of the preparation. For comparison purposes, 0.2 uCi OIH was added to each injection. The mice were placed in metabolic cages for the collection of excreted urine. At indicated intervals after injection, the urethra was ligated and the mice killed with chloroform vapor. The organs were removed and counted in a dual channel counter with correction for I-131 crossover into the Tc-99m channel.
Data set [8] is described as follows: Blood disappearance rates in rats (FIG. 3). Format: in vivo, male Sprague-Dawley rats. As to conditions: rat, in vivo. The text has this: These determinations were made in male Sprague-Dawley rats.
The test system of data set [9] is renal tubular transport. The data set is described as follows: Tubular transport inhibition study with probenicid (Table 2). As to conditions: mice; for Blood / Intestines / Kidneys / Liver / Urine (renal excretion): 10 min post injection; for Urine (renal excretion): 10 min.
Protocol: as §1, §2
A short description of data set [10]: Plasma protein binding, ultrafiltration. Format: in vitro ADME. As to conditions: plasma, duplicate determinations, read-out: binding to plasma proteins (converted). As to the method: Studies of protein binding were carried out in plasma using an ultrafiltration method described at J.Nucl.Med. 22, 258-263, 1981.
Setting [11] is: probenicid treated (50 mg/kg, 10 min prior).

Values joined by “and” are separate entries in the source; they are usually repeats but may differ in a detail not shown here. Equal values may be shown once. Read-outs that look alike come from different tables or passages of the source.

Turning to “1,2-Bis(mercaptoacetamido)ethane [Tc-DADS]”, in data set [1], the Kidneys is 12.6 % of the dose and the in the urine is 28%. In addition, the “biliary excretion of radioactivity in the absence of renal function” value in [2] is recorded as 19%. In the data set with renal tubular transport [3], the “decrease in renal excretion with probenicid, in words” value is “decrease in renal excretion of Tc-DADS to a much greater extent than OIH”. In the data set with renal tubular transport [3] (10 min), the Blood is listed as 1.85 percent injected dose, the Intestines stood at 4.69 percent injected dose, the Kidneys was 4.25 percent injected dose and the Liver was found to be 2.24 percent injected dose. The protein binding value with plasma proteins is 95%. Also, in [4], the “time at which radioactivity remaining in the blood was 2%” value is 68 min and the “time at which radioactivity remaining in the blood was 5%” value was 19 min. Further, the renal retention result in [5] (in vivo) is recorded as “no evidence of significant renal retention”. For the same compound, in data set [6], the distribution of radioactivity entry was “confined radioactivity to the vascular system rather than the extracellular space as with Tc-DTPA”, the “effect of decreased renal function on renal excretion” value is “decreased renal function reduced renal excretion of Tc-DADS to a greater extent than OIH” and the hepatobiliary excretion result is listed as “hepatobiliary excretion became significant”.

Turning to `O=C(O)CNC(=O)c1ccccc1[131I]` [OIH, I-131 o-iodohippurate], the “OIH Urine” value in [7] (5 min) is listed as 42.02 percent injected dose. Also, in [7] (10 min), the “OIH Urine” value is 64.94 percent injected dose. In addition, the “OIH Urine” value in data set [7] (0.25 h) is recorded as 78.24 percent injected dose. The “OIH Urine” value in data set [7] (2 h) is given as 82.43 percent injected dose. The “blood disappearance in words” value in data set [8] is listed as “most rapid disappearance through 75 minutes”. In the data set with renal tubular transport [9] (control), this compound returned a Blood of 4.58 percent injected dose, an Intestines of 1.12 percent injected dose, a Kidneys of 2.83 percent injected dose and a Liver of 1.31 percent injected dose. Also, in the data set on renal tubular transport [9] (control), the “Urine (renal excretion)” value was 64.94 percent injected dose and 65 percent injected dose. For the same compound, the “decrease of renal excretion by probenicid treatment” value with renal tubular transport [9] (10 minutes) worked out at 20%. Also, in the data set on renal tubular transport [9] (setting [11]), the Blood turned out to be 7.49 percent injected dose, the Intestines was 2.18 percent injected dose, the Kidneys is on record as 3.79 percent injected dose and the Liver amounted to 2.68 percent injected dose. The “Urine (renal excretion)” value in the data set on renal tubular transport [9] (setting [11]) is 52.62 percent injected dose and 52 percent injected dose. Moreover, in [5] (renal), the extraction efficiency result is given as “about 67%”. Further, the fraction unbound at 10 min in data set [10] (10 minutes) is 0.36. Moreover, the fraction unbound at 0.5 h in data set [10] (30 minutes) is 0.44.

These data come from patent US4444690A, “Technetium chelates” (priority 1982, dated 1984).
